From patent publication US11427553B2, “Dihydrooxadiazinones” (Bayer Aktiengesellschaft, priority 2017, dated 2022) come the findings set out here.

Bounds are passed on as bounds.

This test relates to HeLa cells. Nature of the test: Assay 1 cell proliferation measurement (CTG, 72 h), HeLa. The test is classed as cell-based, human. To be noted: Homo sapiens, HeLa; Assay 1, 72 h, Cell Titer Glo; read-out: HeLa IC50 [nM] (Cervical cancer). The method, then:
Cell Proliferation Measurement
The antiproliferative activity of the compounds of the general formula (I) was examined in vitro in human cancer cells. For this purpose, the appropriate number of cells (Hela: 800; SK-MEL-3: 1000; A549: 800) were plated in 384-well plates with appropriate growth medium ((A549: DMEM/Ham's F12 (Biochrom; #FG 4815 with stabile Glutamine), FCS 10% final (Biochrom; #S 0415); Hela: DMEM/Ham's F12 (Biochrom; #FG 4815 with stabile Glutamine), FCS 10% final (Biochrom; #S 0415); SK-MEL-3: McCoy's 5A (Biochrom; #F 1015), FCS 10% final (Biochrom; #S 0415), L-Alanyl-L-Glutamine final: 2 mM, (Biochrom; #K 0302)) and incubated at 37° C. overnight. After 24 h, cells on one plate (0 h plate) were treated with 30 μl/cavity of CTG solution (Promega Cell Titer Glo (catalogue #G755B and G756B)) and incubated at room temperature for 10 min, and luminescence was measured by means of a VICTOR V (Perkin Elmer), in order to determine cell viability on commencement of treatment. The cells on the test plate were treated with the compounds of the general formula (I) as and incubated at 37° C. for 72 h. The compounds were added to the cells by means of an HP D300 digital dispenser in a 10-step 2.5-fold dilution series generally starting at a maximum final drug concentration of 100 nM. As control, the cells were treated with vehicle (DMSO at 0.3% final concentration). After 72 h, the cells were treated with 30 μl/cavity of CTG solution (Promega Cell Titer Glo (catalogue #G755B and G756B)) and incubated at room temperature for 10 min. and luminescence was measured by means of a VICTOR V (Perkin Elmer), in order to determine cell viability at the end of treatment. The percentage effect on cell growth and the IC50 derived therefrom were determined for each test substance using the values from the 0 h plate […] and the DMSO control […]. The IC50 values were calculated using a 4-parameter fit.
Background: In ATP-based viability assays light output follows the ATP content of the culture.
As usually defined, the IC50 is the concentration at which inhibition is half-maximal. As for `CNC(=O)CCNc1ccc(C2=NNC(=O)OC2)cc1C(F)(F)F` [Example 303, N-methyl-N^3-[4-(2-oxo-3,6-dihydro-2H-1,3,4-oxadiazin-5-yl)-2-(trifluoromethyl)phenyl]-beta-alaninamide], the IC50 was more than 100 nM.
Under `CNC(=O)C1CCCN1c1ccc(C2=NNC(=O)OC2)cc1C(F)(F)F` (centres unmarked) [Example 304, N-methyl-1-[4-(2-oxo-3,6-dihydro-2H-1,3,4-oxadiazin-5-yl)-2-(trifluoromethyl)phenyl]prolinamide] stands more than 100 nM; under `NC(=O)C1CN(c2ccc(C3=NNC(=O)OC3)cc2C(F)(F)F)C1` [Example 287, 1-[4-(2-oxo-3,6-dihydro-2H-1,3,4-oxadiazin-5-yl)-2-(trifluoromethyl)phenyl]azetidine-3-carboxamide], 23 nM.
With `O=C1NN=C(c2ccc(NCCc3cnc[nH]3)c(C(F)(F)F)c2)CO1` [Example 291, 5-[4-{[2-(1H-imidazol-5-yl)ethyl]amino}-3-(trifluoromethyl)phenyl]-3,6-dihydro-2H-1,3,4-oxadiazin-2-one] the figure was 35 nM; with `O=C1NN=C(c2ccc(NCc3cccnn3)c(C(F)(F)F)c2)CO1` [Example 308, 5-[4-{[(pyridazin-3-yl)methyl]amino}-3-(trifluoromethyl)phenyl]-3,6-dihydro-2H-1,3,4-oxadiazin-2-one], more than 100 nM.
Under `C[C@@H](O)[C@@H](CO)Nc1ccc(C2=NNC(=O)OC2)cc1C(F)(F)F` [Example 292, 5-[4-{[(2R,3R)-1,3-dihydroxybutan-2-yl]amino}-3-(trifluoromethyl)phenyl]-3,6-dihydro-2H-1,3,4-oxadiazin-2-one] stands 43 nM; under `CN(C)C1CCN(c2ccc(C3=NNC(=O)OC3)cc2C(F)(F)F)C1` (centres unmarked) [Example 310, 5-{4-[3-(dimethylamino)pyrrolidin-1-yl]-3-(trifluoromethyl)phenyl}-3,6-dihydro-2H-1,3,4-oxadiazin-2-one], more than 100 nM.
As to `O=C1NN=C(c2ccc(NCC3CCOCC3)c(C(F)(F)F)c2)CO1` [Example 294, 5-[4-{[(oxan-4-yl)methyl]amino}-3-(trifluoromethyl)phenyl]-3,6-dihydro-2H-1,3,4-oxadiazin-2-one], the IC50 came out at 45 nM.
Turning to `CC1CN(C)CCN(c2ccc(C3=NNC(=O)OC3)cc2C(F)(F)F)C1` (centres unmarked) [Example 302, 5-[4-(4,6-dimethyl-1,4-diazepan-1-yl)-3-(trifluoromethyl)phenyl]-3,6-dihydro-2H-1,3,4-oxadiazin-2-one], the IC50 is more than 100 nM.
Turning to `Cn1ccc(CNc2ccc(C3=NNC(=O)OC3)cc2C(F)(F)F)n1` [Example 286, 5-[4-{[(1-methyl-1H-pyrazol-3-yl)methyl]amino}-3-(trifluoromethyl)phenyl]-3,6-dihydro-2H-1,3,4-oxadiazin-2-one], the IC50 was found to be 23 nM.
With `CCN(CCC#N)c1ccc(C2=NNC(=O)OC2)cc1C(F)(F)F` [Example 314, 3-{ethyl[4-(2-oxo-3,6-dihydro-2H-1,3,4-oxadiazin-5-yl)-2-(trifluoromethyl)phenyl]amino}propanenitrile] the figure was more than 100 nM.
